Test results reported in patent US11059854B2, “Method for preparing steroid derivative FXR agonist” (Chia Tai Tianqing Pharmaceutical Group Co., Ltd., priority 2017, dated 2021).

Experiments:
[1] = Liver-blood ratio experiment of mice via cassette dosing; assay type: in vivo, C57BL/6J male mice; conditions: for Liver concentration 0.5 h / Liver/plasma concentration ratio 0.5 h / Plasma concentration 0.5 h / Liver concentration 3 h / Liver/plasma concentration ratio 3 h / Plasma concentration 3 h: oral cassette 2 mg/kg/compound
Description: Six C57BL/6J male mice were grouped as one oral group. The preparation contained 5 kinds of the developed drugs, and 2 mg/kg/compound was intragastrically administered (the solvent was 0.5% HPMC aqueous solution). The five compounds were firstly dissolved in the solvent, respectively, by ultrasonication or vortex, to form 1 mg/mL solutions (clear solution or suspension), and then the solutions of the five compound were mixed in equal volumes (1:1:1:1:1, v:v:v:v:v) in a glass bottle. After intragastrical oral administration, plasma and liver tissue samples were collected from 3 animals at 0.5 hours after administration; corresponding samples were collected from the other 3 animals at 3 hours after administration. After collection, the liver tissue was homogenized by using ice-cold homogenization buffer (methanol: 15 mM PBS buffer (pH 7.4)=1:2, v:v) according to liver weight: homogenization buffer volume=1:3. Plasma and liver tissue samples were analyzed by using a five-in-one LC-MS/MS analysis method developed in advance. Plasma concentrations and liver tissue homogenate concentrations were obtained, and the concentration ratio of liver tissue to plasma was calculated by using Excel.

[2] = target: T1, FXR (FXR HEK 293T DA cell line) (Homo sapiens, UniProt Q96RI1); assay: FXR cell experiment (β-lactamase reporter gene); assay type: cell-based
T1 construct: The UAS-driven beta-lactamase is the reporter
T1 sequence (Q96RI1 262-486 limits assumed): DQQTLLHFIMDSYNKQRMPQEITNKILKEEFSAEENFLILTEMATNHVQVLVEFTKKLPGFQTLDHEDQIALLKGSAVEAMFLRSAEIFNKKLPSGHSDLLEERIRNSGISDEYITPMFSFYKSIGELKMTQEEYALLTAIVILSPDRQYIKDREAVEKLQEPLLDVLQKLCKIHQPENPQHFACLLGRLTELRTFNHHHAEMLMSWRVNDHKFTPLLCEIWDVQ
Description: 2. Cell culture medium: DMEM medium supplemented with 10% serum and Penicillin/Streptomycin (1×).
3. Detection reagent: GeneBLAzer® Reporter Gene Detection Kit (Invitrogen)
1. Compound dilution: the test compound was prepared as a 100 μM DMSO solution, and then the compound was diluted 3-fold to 10 concentration points. The reference compound was prepared as a 100 μM DMSO solution, and then diluted 1.3-fold to 10 concentration points. The diluted DMSO solution was added to the wells of a 384-well plate in a volume of 200 nL per well.
3. The 384-well microplate was incubated at 37° C., 5% CO2 for 16 hours.
4. 6 μL of 1 mM LiveBLAzer™-FRET B/G (CCF4-AM) substrate was mixed with 60 μL of B solution and 934 μL of C solution, which was added to the wells of a 384-well plate in a volume of 8 μL per well.
5. The 384-well microplate was incubated in dark for 2 hours at room temperature.
7. Analytical data: the data were analyzed by using Prism 5.0 to calculate the EC50 value of the activation of the compound.

[3] = target: T2, glutathione-S-transferase-labeled FXR human protein (Homo sapiens, UniProt Q96RI1); assay: FXR biochemical experiment (alphascreen, coactivator recruitment); conditions: for FXR enzymatic activity Efficacy: highest signal relative to highest signal of the reference compound; for EC50: alphascreen, GST-FXR human protein with biotin-labeled steroid receptor coactivator, read-out: FXR enzymatic activity EC50
T2 construct: purchased Invitrogen
T2 sequence (Q96RI1 1-486): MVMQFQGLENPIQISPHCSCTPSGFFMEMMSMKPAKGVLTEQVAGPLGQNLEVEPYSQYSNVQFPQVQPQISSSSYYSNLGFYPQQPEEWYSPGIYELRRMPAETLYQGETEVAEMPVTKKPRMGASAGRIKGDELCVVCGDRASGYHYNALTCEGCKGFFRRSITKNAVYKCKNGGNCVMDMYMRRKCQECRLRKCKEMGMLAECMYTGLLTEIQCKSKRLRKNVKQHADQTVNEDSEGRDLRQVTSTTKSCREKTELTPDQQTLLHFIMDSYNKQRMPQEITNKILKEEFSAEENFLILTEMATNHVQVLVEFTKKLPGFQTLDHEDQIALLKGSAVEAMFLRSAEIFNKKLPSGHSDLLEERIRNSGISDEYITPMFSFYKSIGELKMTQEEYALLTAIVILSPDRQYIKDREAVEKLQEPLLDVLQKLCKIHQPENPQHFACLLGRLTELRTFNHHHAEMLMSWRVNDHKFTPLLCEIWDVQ
Description: FXR Biochemical Experiment
The activation of compounds on FXR binding reaction was examined by a homogeneous proximity luminescenceamplification test (alphascreen).
Protein: glutathione-S-transferase-labeled FXR human protein (Invitrogen)
Co-activator: Biotin-labeled steroid receptor coactivator (Anaspec)
Detection reagent: homogeneous proximity luminescence amplification test (alphascreen) Detection Kit (PerkinElmer)
Compound dilution: the test compound was prepared as a 40 μM DMSO solution, and then diluted 3-fold to 10 concentration points. The reference compound was prepared as a 400 μM DMSO solution, followed by diluted 1.5-fold to 10 concentration points. The diluted DMSO solution was added to the wells of a 384-well plate in a volume of 150 nL per well.
Glutathione-S-transferase-labeled FXR human protein and biotin-labeled steroid receptor coactivator were formulated as mixed solutions with concentrations of 0.4 nM and 30 nM, respectively, which was added to the wells of the 384-well plate in a volume of 15 per well, and the plate was incubated for 1 hour at room temperature.
The experiment process was carried out with protecting from light. The incubation was performed for 1 hour at room temperature.
The experiment process was carried out by protecting from light. The incubation was performed for 1 hour at room temperature.

[4] = Pharmacokinetics in mice administrated with single compound; assay type: in vivo, C57BL/6J male mice; conditions: for drug exposure compared with obeticholic acid / peak concentration compared with obeticholic acid: oral, same dosage (10 mg/kg), in words
Description: Twelve C57BL/6J male mice were randomly divided into two groups, 6 mice in each group. […] Plasma (using K2-EDTA as anticoagulant) samples were taken at 0.083, 0.25, 0.5, 1, 2, 4, 6, 8 and 24 hours after administration for the intravenous group; and plasma samples were taken at 0.25, 0.5, 1, 2, 4, 6, 8 and 24 hours after administration for the oral group. For 6 animals in each group, blood samples were collected for 3 animals at one time point, and the first batch of 3 animals was alternately sampled with the second batch of 3 animals. Plasma sample analysis was performed by using LC-MS/MS. The obtained plasma concentrations were plotted against time, and PK parameters were calculated by using Phoenix WinNonlin 6.3.

[5] = oral, same dosage (2 mg/kg), 0.5 hours and 3 hours, in words
[6] = male, C57BL/6J, mouse, plasma, oral (intragastric) 10 mg/kg, 0.5% HPMC

Row | SMILES | Liver concentration 0.5 h [1] [nM] | Liver/plasma concentration ratio 0.5 h [1] | Plasma concentration 0.5 h [1] [nM] | Liver concentration 3 h [1] [nM] | Liver/plasma concentration ratio 3 h [1] | Plasma concentration 3 h [1] [nM] | EC50 ([2]; FXR HEK 293T DA cells, β-lactamase reporter, 16 hours, read-out: FXR cell viability EC50) [nM] | FXR cell viability Efficacy ([2]; highest signal relative to reference compound CDCA) [%] | FXR enzymatic activity Efficacy [3] [%] | drug exposure compared with obeticholic acid [4] | peak concentration compared with obeticholic acid [4] | EC50 [3] [nM] | drug concentrations in the liver compared with control compound [1, 5] | liver/plasma concentration ratios compared with control compound [1, 5] | AUC [4, 6] [µM·h] | Cmax [4, 6] [nM] | Tmax [4, 6] [min]
1 | CC[C@H]1[C@@H](O)[C@@H]2[C@H](CC[C@]3(C)[C@@H]([C@H](C)CCC(=O)O)CC[C@@H]23)[C@@]2(C)CC[C@@H](O)C[C@@H]12 [Obeticholic acid, obeticholic acid, reference compound] | 711 | 5 | 151 | 625 | 10 | 63 | – | – | – | – | – | – | – | – | – | – | –
2 | CC[C@H]1[C@@H](O)[C@@H]2[C@H](CC[C@]3(C)[C@@H]([C@H](C)CCOc4ncc(C(=O)O)cc4Cl)CC[C@@H]23)[C@@]2(C)CC[C@@H](O)C[C@@H]12 [The compound of formula I-Cl] | – | – | – | – | – | – | 3 | 150 | 248 | higher than that of the control compound obeticholic acid | higher than that of the control compound obeticholic acid | – | – | – | – | – | –
3 | CC[C@H]1[C@@H](O)[C@@H]2[C@H](CC[C@]3(C)[C@@H]([C@H](C)CCOc4ncc(C(=O)O)cc4F)CC[C@@H]23)[C@@]2(C)CC[C@@H](O)C[C@@H]12 [The compound of formula I-F] | – | – | – | – | – | – | – | – | 138 | – | – | 2.5 | – | – | – | – | –
4 | CC[C@H]1[C@@H](O)[C@@H]2[C@H](CC[C@]3(C)[C@@H]([C@H](C)CCOc4ccc(C(=O)O)cn4)CC[C@@H]23)[C@@]2(C)CC[C@@H](O)C[C@@H]12 [The compound of formula I-H] | 1959 | 24 | 83 | 701 | 16 | 45 | – | – | 249 | higher than that of the control compound obeticholic acid | close to that of the control compound obeticholic acid | 6 | higher than those of the control compound | higher than those of the control compound | 2.34 | 936 | 30
